Experimental data published in publication PMC8885417, “Pharmacological targeting of MTHFD2 suppresses acute myeloid leukemia by inducing thymidine depletion and replication stress” (Nature Cancer, 2022).

Assays:
Adenosine A2A = target: T1, Adenosine A2A (Homo sapiens, UniProt P29274); experiment: biochemical; parameters: Eurofins SafetyScreen44 panel of binding and enzyme assays, mean per cent inhibition of duplicate; conditions: read-out: Inhibition (%) at 10 µM TH9619
T1 construct: gene ADORA2A
From the text: (§1) Bars represent the mean change in protein melting temperature (ΔTm) of one experiment performed in triplicate. […] Bars represent mean inhibition in percentage of one experiment performed in duplicate.

Adrenergic ß1 = target: T2, Adrenergic ß1 (Homo sapiens, UniProt P08588); experiment: biochemical; parameters: Eurofins SafetyScreen44 panel of binding and enzyme assays, mean per cent inhibition of duplicate; conditions: read-out: Inhibition (%) at 10 µM TH9619
T2 construct: gene ADRB1
From the text: as §1

Adrenergic ß2 = target: T3, Adrenergic ß2 (Homo sapiens, UniProt P07550); experiment: biochemical; parameters: Eurofins SafetyScreen44 panel of binding and enzyme assays, mean per cent inhibition of duplicate; conditions: read-out: Inhibition (%) at 10 µM TH9619
T3 construct: gene ADRB2
From the text: as §1

Adrenergic α1A = target: T4, Adrenergic α1A (Homo sapiens, UniProt P35348); experiment: biochemical; parameters: Eurofins SafetyScreen44 panel of binding and enzyme assays, mean per cent inhibition of duplicate; conditions: read-out: Inhibition (%) at 10 µM TH9619
T4 construct: gene ADRA1A
From the text: as §1

Adrenergic α2A = target: T5, Adrenergic α2A (Homo sapiens, UniProt P08913); experiment: biochemical; parameters: Eurofins SafetyScreen44 panel of binding and enzyme assays, mean per cent inhibition of duplicate; conditions: read-out: Inhibition (%) at 10 µM TH9619
T5 construct: gene ADRA2A
From the text: as §1

Androgen (Testosterone) = target: T6, Androgen (Testosterone) (Homo sapiens, UniProt P10275); experiment: biochemical; parameters: Eurofins SafetyScreen44 panel of binding and enzyme assays, mean per cent inhibition of duplicate; conditions: read-out: Inhibition (%) at 10 µM TH9619
T6 construct: gene AR
From the text: as §1

Cannabinoid CB1 = target: T7, Cannabinoid CB1 (Homo sapiens, UniProt P21554); experiment: biochemical; parameters: Eurofins SafetyScreen44 panel of binding and enzyme assays, mean per cent inhibition of duplicate; conditions: read-out: Inhibition (%) at 10 µM TH9619
T7 construct: gene CNR1
From the text: as §1

Cannabinoid CB2 = target: T8, Cannabinoid CB2 (Homo sapiens, UniProt P34972); experiment: biochemical; parameters: Eurofins SafetyScreen44 panel of binding and enzyme assays, mean per cent inhibition of duplicate; conditions: read-out: Inhibition (%) at 10 µM TH9619
T8 construct: gene CNR2
From the text: as §1

[1] = target: T9, Cholecystokinin CCK1 (CCKA) (Homo sapiens, UniProt P32238); experiment: biochemical; parameters: Eurofins SafetyScreen44 panel of binding and enzyme assays, mean per cent inhibition of duplicate; conditions: read-out: Inhibition (%) at 10 µM TH9619
T9 construct: gene CCKAR
From the text: as §1

[2] = target: T10, Cholinesterase,Acetyl, ACES (Homo sapiens, UniProt P22303); experiment: biochemical; parameters: Eurofins SafetyScreen44 panel of binding and enzyme assays, mean per cent inhibition of duplicate; conditions: read-out: Inhibition (%) at 10 µM TH9619
T10 construct: gene ACHE
From the text: as §1

Cyclooxygenase COX-1 = target: T11, Cyclooxygenase COX-1 (Homo sapiens, UniProt P23219); experiment: biochemical; parameters: Eurofins SafetyScreen44 panel of binding and enzyme assays, mean per cent inhibition of duplicate; conditions: read-out: Inhibition (%) at 10 µM TH9619
T11 construct: gene PTGS1
From the text: as §1

Cyclooxygenase COX-2 = target: T12, Cyclooxygenase COX-2 (Homo sapiens, UniProt P35354); experiment: biochemical; parameters: Eurofins SafetyScreen44 panel of binding and enzyme assays, mean per cent inhibition of duplicate; conditions: read-out: Inhibition (%) at 10 µM TH9619
T12 construct: gene PTGS2
From the text: as §1

Dopamine D1 = target: T13, Dopamine D1 (Homo sapiens, UniProt P21728); experiment: biochemical; parameters: Eurofins SafetyScreen44 panel of binding and enzyme assays, mean per cent inhibition of duplicate; conditions: read-out: Inhibition (%) at 10 µM TH9619
T13 construct: gene DRD1
From the text: as §1

Dopamine D2S = target: T14, Dopamine D2S (Homo sapiens, UniProt P14416); experiment: biochemical; parameters: Eurofins SafetyScreen44 panel of binding and enzyme assays, mean per cent inhibition of duplicate; conditions: read-out: Inhibition (%) at 10 µM TH9619
T14 construct: gene DRD2; isoform D2S (short)
From the text: as §1

Endothelin ETA = target: T15, Endothelin ETA (Homo sapiens, UniProt P25101); experiment: biochemical; parameters: Eurofins SafetyScreen44 panel of binding and enzyme assays, mean per cent inhibition of duplicate; conditions: read-out: Inhibition (%) at 10 µM TH9619
T15 construct: gene EDNRA
From the text: as §1

Glucocorticoid = target: T16, Glucocorticoid (Homo sapiens, UniProt P04150); experiment: biochemical; parameters: Eurofins SafetyScreen44 panel of binding and enzyme assays, mean per cent inhibition of duplicate; conditions: read-out: Inhibition (%) at 10 µM TH9619
T16 construct: gene NR3C1
From the text: as §1

Histamine H1 = target: T17, Histamine H1 (Homo sapiens, UniProt P35367); experiment: biochemical; parameters: Eurofins SafetyScreen44 panel of binding and enzyme assays, mean per cent inhibition of duplicate; conditions: read-out: Inhibition (%) at 10 µM TH9619
T17 construct: gene HRH1
From the text: as §1

Histamine H2 = target: T18, Histamine H2 (Homo sapiens, UniProt P25021); experiment: biochemical; parameters: Eurofins SafetyScreen44 panel of binding and enzyme assays, mean per cent inhibition of duplicate; conditions: read-out: Inhibition (%) at 10 µM TH9619
T18 construct: gene HRH2
From the text: as §1

Monoamine Oxidase MAO-A = target: T19, Monoamine Oxidase MAO-A (Homo sapiens, UniProt P21397); experiment: biochemical; parameters: Eurofins SafetyScreen44 panel of binding and enzyme assays, mean per cent inhibition of duplicate; conditions: read-out: Inhibition (%) at 10 µM TH9619
T19 construct: gene MAOA
From the text: as §1

Muscarinic M1 = target: T20, Muscarinic M1 (Homo sapiens, UniProt P11229); experiment: biochemical; parameters: Eurofins SafetyScreen44 panel of binding and enzyme assays, mean per cent inhibition of duplicate; conditions: read-out: Inhibition (%) at 10 µM TH9619
T20 construct: gene CHRM1
From the text: as §1

Muscarinic M2 = target: T21, Muscarinic M2 (Homo sapiens, UniProt P08172); experiment: biochemical; parameters: Eurofins SafetyScreen44 panel of binding and enzyme assays, mean per cent inhibition of duplicate; conditions: read-out: Inhibition (%) at 10 µM TH9619
T21 construct: gene CHRM2
From the text: as §1

Muscarinic M3 = target: T22, Muscarinic M3 (Homo sapiens, UniProt P20309); experiment: biochemical; parameters: Eurofins SafetyScreen44 panel of binding and enzyme assays, mean per cent inhibition of duplicate; conditions: read-out: Inhibition (%) at 10 µM TH9619
T22 construct: gene CHRM3
From the text: as §1

[3] = target: T23, Nicotinic Acetylcholine a4ß2, Cytisine (Homo sapiens, UniProt P17787+P43681); experiment: biochemical; parameters: Eurofins SafetyScreen44 panel of binding and enzyme assays, mean per cent inhibition of duplicate; conditions: read-out: Inhibition (%) at 10 µM TH9619
T23 construct: gene CHRNB2; cytisine site
From the text: as §1

Opiate µ (OP3, MOP) = target: T24, Opiate µ (OP3, MOP) (Homo sapiens, UniProt P35372); experiment: biochemical; parameters: Eurofins SafetyScreen44 panel of binding and enzyme assays, mean per cent inhibition of duplicate; conditions: read-out: Inhibition (%) at 10 µM TH9619
T24 construct: gene OPRM1
From the text: as §1

Opiate κ (OP2, KOP) = target: T25, Opiate κ (OP2, KOP) (Homo sapiens, UniProt P41145); experiment: biochemical; parameters: Eurofins SafetyScreen44 panel of binding and enzyme assays, mean per cent inhibition of duplicate; conditions: read-out: Inhibition (%) at 10 µM TH9619
T25 construct: gene OPRK1
From the text: as §1

Phosphodiesterase PDE3A = Phosphodiesterase PDE3A (Homo sapiens, UniProt Q14432); experiment: biochemical; parameters: Eurofins SafetyScreen44 panel of binding and enzyme assays, mean per cent inhibition of duplicate; conditions: read-out: Inhibition (%) at 10 µM TH9619
From the text: as §1

Phosphodiesterase PDE4D2 = target: T26, Phosphodiesterase PDE4D2 (Homo sapiens, UniProt Q08499); experiment: biochemical; parameters: Eurofins SafetyScreen44 panel of binding and enzyme assays, mean per cent inhibition of duplicate; conditions: read-out: Inhibition (%) at 10 µM TH9619
T26 construct: gene PDE4D; isoform PDE4D2
From the text: as §1

[4] = target: T27, Potassium Channel hERG, [3H]Dofetilide (Homo sapiens, UniProt Q12809); experiment: in vitro; parameters: Eurofins SafetyScreen44 panel of binding and enzyme assays, mean per cent inhibition of duplicate
T27 construct: gene KCNH2; dofetilide site
From the text: as §1

[5] = target: Protein Tyrosine Kinase, LCK (Homo sapiens, UniProt P06239); experiment: biochemical; parameters: Eurofins SafetyScreen44 panel of binding and enzyme assays, mean per cent inhibition of duplicate; conditions: read-out: Inhibition (%) at 10 µM TH9619
From the text: as §1

[6] = target: T28, Serotonin (5-Hydroxytryptamine) 5-HT1A (Homo sapiens, UniProt P08908); experiment: biochemical; parameters: Eurofins SafetyScreen44 panel of binding and enzyme assays, mean per cent inhibition of duplicate; conditions: read-out: Inhibition (%) at 10 µM TH9619
T28 construct: gene HTR1A
From the text: as §1

[7] = target: T29, Serotonin (5-Hydroxytryptamine) 5-HT1B (Homo sapiens, UniProt P28222); experiment: biochemical; parameters: Eurofins SafetyScreen44 panel of binding and enzyme assays, mean per cent inhibition of duplicate; conditions: read-out: Inhibition (%) at 10 µM TH9619
T29 construct: gene HTR1B
From the text: as §1

[8] = target: T30, Serotonin (5-Hydroxytryptamine) 5-HT2B (Homo sapiens, UniProt P41595); experiment: biochemical; parameters: Eurofins SafetyScreen44 panel of binding and enzyme assays, mean per cent inhibition of duplicate; conditions: read-out: Inhibition (%) at 10 µM TH9619
T30 construct: gene HTR2B
From the text: as §1

[9] = target: T31, Serotonin (5-Hydroxytryptamine) 5-HT3 (Homo sapiens, UniProt P46098); experiment: biochemical; parameters: Eurofins SafetyScreen44 panel of binding and enzyme assays, mean per cent inhibition of duplicate; conditions: read-out: Inhibition (%) at 10 µM TH9619
T31 construct: gene HTR3A
From the text: as §1

[10] = target: T32, Transporter, Dopamine (DAT) (Homo sapiens, UniProt Q01959); experiment: biochemical; parameters: Eurofins SafetyScreen44 panel of binding and enzyme assays, mean per cent inhibition of duplicate; conditions: read-out: Inhibition (%) at 10 µM TH9619
T32 construct: gene SLC6A3
From the text: as §1

[11] = target: T33, Transporter, Norepinephrine (NET) (Homo sapiens, UniProt P23975); experiment: biochemical; parameters: Eurofins SafetyScreen44 panel of binding and enzyme assays, mean per cent inhibition of duplicate; conditions: read-out: Inhibition (%) at 10 µM TH9619
T33 construct: gene SLC6A2
From the text: as §1

[12] = target: T34, Transporter, Serotonin (5-Hydroxytryptamine) (SERT) (Homo sapiens, UniProt P31645); experiment: biochemical; parameters: Eurofins SafetyScreen44 panel of binding and enzyme assays, mean per cent inhibition of duplicate; conditions: read-out: Inhibition (%) at 10 µM TH9619
T34 construct: gene SLC6A4
From the text: as §1

Vasopressin V1A = target: T35, Vasopressin V1A (Homo sapiens, UniProt P37288); experiment: biochemical; parameters: Eurofins SafetyScreen44 panel of binding and enzyme assays, mean per cent inhibition of duplicate; conditions: read-out: Inhibition (%) at 10 µM TH9619
T35 construct: gene AVPR1A
From the text: as §1

MTHFD2L = MTHFD2L (Homo sapiens, UniProt Q9H903); experiment: biochemical activity assay; conditions: read-out: MTHFD2L IC50
MTHFD1-(DC) = target: T36, MTHFD1-(DC) (Homo sapiens, UniProt P11586); experiment: biochemical activity assay
T36 construct: dehydrogenase/cyclohydrolase (DC) domain

MTHFD2 = MTHFD2 (Homo sapiens, UniProt P13995); experiment: cocrystal structure with NAD+; enzymatic IC50; CETSA; format: biochemical

T9 sequence (P32238 whole entry): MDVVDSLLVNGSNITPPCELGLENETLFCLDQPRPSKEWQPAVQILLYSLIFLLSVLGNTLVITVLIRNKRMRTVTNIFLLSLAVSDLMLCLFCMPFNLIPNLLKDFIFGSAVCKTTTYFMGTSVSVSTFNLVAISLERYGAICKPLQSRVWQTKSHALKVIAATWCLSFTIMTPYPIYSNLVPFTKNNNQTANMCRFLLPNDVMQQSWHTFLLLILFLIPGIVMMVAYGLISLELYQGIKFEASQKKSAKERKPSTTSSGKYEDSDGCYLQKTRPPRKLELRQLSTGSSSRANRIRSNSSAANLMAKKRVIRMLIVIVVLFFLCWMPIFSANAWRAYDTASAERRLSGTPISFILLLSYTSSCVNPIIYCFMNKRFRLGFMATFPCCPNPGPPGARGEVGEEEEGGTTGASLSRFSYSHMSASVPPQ
T3 sequence (P07550 whole entry): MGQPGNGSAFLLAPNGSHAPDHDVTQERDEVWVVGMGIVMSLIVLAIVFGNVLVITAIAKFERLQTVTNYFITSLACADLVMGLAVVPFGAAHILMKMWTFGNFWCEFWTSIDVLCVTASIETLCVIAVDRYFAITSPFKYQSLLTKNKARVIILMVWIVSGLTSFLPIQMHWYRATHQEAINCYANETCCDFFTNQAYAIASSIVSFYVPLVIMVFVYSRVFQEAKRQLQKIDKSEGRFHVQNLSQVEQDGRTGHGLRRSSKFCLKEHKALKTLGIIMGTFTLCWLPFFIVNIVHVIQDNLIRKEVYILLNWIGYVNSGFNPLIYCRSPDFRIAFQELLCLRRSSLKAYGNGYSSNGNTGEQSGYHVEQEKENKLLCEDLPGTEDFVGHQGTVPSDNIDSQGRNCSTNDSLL
T25 sequence (P41145 whole entry): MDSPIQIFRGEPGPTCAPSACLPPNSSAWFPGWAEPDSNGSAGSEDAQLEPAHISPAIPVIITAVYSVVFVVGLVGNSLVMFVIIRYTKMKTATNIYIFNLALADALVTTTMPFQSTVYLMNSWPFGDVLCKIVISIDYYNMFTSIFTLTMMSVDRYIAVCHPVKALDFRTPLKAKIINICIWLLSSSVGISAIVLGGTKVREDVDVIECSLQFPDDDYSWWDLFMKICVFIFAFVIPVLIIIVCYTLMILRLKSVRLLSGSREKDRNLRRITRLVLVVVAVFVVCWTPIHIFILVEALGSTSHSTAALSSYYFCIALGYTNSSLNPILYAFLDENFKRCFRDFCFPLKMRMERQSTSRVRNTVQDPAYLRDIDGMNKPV
T35 sequence (P37288 whole entry): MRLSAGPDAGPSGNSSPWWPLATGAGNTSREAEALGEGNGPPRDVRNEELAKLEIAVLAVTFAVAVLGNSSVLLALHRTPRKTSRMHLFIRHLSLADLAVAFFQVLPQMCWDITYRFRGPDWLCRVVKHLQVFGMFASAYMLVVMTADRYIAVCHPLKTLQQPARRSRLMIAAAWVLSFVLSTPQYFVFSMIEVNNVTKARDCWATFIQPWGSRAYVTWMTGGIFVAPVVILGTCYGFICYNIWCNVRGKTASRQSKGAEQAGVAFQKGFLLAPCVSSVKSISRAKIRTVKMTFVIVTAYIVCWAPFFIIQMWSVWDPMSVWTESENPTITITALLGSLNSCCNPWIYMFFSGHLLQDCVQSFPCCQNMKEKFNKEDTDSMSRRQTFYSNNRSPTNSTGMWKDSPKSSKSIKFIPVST
T14 sequence (P14416 whole entry, canonical isoform): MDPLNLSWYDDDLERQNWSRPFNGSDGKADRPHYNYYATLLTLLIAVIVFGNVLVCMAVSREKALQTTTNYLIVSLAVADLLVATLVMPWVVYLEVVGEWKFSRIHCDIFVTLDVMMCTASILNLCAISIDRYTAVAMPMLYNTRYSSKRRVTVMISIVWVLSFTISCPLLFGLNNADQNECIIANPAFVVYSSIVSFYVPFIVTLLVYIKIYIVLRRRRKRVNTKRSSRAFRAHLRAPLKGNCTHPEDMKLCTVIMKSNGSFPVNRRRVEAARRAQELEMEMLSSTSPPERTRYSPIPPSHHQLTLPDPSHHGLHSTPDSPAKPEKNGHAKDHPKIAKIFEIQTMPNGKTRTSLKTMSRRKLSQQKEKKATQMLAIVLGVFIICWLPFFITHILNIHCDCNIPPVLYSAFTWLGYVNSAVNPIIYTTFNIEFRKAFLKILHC
T29 sequence (P28222 whole entry): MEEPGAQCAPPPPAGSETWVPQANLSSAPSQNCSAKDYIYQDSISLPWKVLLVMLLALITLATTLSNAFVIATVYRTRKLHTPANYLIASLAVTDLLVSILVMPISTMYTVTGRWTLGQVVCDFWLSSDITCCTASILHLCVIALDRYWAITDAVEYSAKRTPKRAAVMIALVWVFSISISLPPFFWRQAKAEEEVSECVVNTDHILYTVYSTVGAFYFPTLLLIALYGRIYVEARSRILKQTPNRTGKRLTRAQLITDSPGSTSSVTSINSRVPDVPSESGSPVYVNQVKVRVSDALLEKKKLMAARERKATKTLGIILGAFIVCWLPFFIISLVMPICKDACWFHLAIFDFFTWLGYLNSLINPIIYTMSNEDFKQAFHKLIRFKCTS
T17 sequence (P35367 whole entry): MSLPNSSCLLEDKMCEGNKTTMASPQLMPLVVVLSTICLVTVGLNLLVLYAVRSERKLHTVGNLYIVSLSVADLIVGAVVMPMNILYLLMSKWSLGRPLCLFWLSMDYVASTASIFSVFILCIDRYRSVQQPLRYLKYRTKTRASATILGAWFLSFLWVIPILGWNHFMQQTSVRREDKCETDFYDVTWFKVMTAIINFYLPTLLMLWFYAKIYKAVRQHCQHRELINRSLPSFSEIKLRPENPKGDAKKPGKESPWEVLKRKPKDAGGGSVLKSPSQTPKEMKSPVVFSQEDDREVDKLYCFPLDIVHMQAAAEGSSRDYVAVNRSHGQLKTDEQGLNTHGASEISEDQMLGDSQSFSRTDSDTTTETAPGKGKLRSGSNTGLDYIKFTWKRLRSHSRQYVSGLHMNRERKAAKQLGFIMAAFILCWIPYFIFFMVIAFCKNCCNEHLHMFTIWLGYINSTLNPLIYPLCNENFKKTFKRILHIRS
T4 sequence (P35348 whole entry): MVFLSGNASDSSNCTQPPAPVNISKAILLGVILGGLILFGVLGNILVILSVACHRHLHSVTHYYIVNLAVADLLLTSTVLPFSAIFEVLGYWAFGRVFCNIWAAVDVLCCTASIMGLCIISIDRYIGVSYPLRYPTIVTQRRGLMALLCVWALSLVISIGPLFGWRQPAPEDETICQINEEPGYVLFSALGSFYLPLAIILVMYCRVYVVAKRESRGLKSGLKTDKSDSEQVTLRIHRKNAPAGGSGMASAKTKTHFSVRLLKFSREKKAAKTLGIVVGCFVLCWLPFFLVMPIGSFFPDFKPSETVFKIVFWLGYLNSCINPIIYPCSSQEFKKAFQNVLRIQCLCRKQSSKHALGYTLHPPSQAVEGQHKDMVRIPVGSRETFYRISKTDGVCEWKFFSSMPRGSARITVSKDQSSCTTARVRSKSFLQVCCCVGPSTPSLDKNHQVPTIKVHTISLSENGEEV
T16 sequence (P04150 whole entry): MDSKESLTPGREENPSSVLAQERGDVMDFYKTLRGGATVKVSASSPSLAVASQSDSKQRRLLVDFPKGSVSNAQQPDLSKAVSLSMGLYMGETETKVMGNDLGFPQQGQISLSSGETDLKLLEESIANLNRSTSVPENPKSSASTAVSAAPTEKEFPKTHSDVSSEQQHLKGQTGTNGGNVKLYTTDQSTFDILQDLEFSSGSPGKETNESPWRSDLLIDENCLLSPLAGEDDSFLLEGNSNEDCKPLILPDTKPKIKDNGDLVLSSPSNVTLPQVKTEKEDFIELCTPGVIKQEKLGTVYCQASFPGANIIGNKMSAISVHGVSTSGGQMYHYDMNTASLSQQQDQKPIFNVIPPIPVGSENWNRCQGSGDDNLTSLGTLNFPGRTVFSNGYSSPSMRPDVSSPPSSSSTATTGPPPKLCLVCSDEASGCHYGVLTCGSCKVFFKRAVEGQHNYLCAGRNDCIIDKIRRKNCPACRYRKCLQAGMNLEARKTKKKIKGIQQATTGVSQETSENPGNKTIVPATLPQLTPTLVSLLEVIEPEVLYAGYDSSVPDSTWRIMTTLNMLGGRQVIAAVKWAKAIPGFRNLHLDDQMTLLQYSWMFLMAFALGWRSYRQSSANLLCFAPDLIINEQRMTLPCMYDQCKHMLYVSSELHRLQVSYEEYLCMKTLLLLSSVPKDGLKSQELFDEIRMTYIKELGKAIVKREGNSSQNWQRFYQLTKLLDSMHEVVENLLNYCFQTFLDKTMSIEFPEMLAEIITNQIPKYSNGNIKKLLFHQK
T36 sequence (P11586 2-306 limits assumed): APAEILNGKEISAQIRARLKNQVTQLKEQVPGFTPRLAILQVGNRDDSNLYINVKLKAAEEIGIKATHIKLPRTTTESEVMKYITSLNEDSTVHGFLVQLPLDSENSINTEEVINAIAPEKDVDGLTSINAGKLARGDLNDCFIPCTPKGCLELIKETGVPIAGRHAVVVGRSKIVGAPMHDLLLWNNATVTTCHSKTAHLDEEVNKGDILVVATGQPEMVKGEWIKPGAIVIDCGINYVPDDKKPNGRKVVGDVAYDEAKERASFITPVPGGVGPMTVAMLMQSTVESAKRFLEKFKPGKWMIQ
T5 sequence (P08913 whole entry): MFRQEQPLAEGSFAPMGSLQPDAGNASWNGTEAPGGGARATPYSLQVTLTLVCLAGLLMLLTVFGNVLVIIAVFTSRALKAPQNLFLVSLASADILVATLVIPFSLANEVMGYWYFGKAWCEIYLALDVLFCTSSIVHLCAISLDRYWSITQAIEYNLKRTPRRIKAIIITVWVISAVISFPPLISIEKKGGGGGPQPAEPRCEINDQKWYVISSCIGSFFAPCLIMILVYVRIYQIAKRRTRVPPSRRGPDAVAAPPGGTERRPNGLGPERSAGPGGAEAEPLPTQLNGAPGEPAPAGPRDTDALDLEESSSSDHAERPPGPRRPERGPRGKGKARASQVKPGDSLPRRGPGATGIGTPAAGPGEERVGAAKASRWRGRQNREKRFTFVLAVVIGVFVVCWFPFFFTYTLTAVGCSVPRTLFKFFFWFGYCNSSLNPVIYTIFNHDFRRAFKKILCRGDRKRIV

## Nc1nc(N)c(CC(=O)Nc2cnc(C(=O)N[C@@H](CCC(=O)O)C(=O)O)c(F)c2)c(=O)[nH]1 [TH9619]
Adenosine A2A
  inhibition at 10 µM: 11%
Adrenergic ß1
  inhibition at 10 µM: 0%
Adrenergic ß2
  inhibition at 10 µM: 1%
Adrenergic α1A
  inhibition at 10 µM: 9%
Adrenergic α2A
  inhibition at 10 µM: 9%
Androgen (Testosterone)
  inhibition at 10 µM: 3%
Cannabinoid CB1
  inhibition at 10 µM: 0%
Cannabinoid CB2
  inhibition at 10 µM: -3%
[1]
  inhibition at 10 µM: 7%
[2]
  inhibition at 10 µM: 21%
Cyclooxygenase COX-1
  inhibition at 10 µM: 9%
Cyclooxygenase COX-2
  inhibition at 10 µM: 16%
Dopamine D1
  inhibition at 10 µM: 5%
Dopamine D2S
  inhibition at 10 µM: 1%
Endothelin ETA
  inhibition at 10 µM: -7%
Glucocorticoid
  inhibition at 10 µM: 3%
Histamine H1
  inhibition at 10 µM: 7%
Histamine H2
  inhibition at 10 µM: -6%
Monoamine Oxidase MAO-A
  inhibition at 10 µM: 6%
Muscarinic M1
  inhibition at 10 µM: -7%
Muscarinic M2
  inhibition at 10 µM: -29%
Muscarinic M3
  inhibition at 10 µM: -2%
[3]
  inhibition at 10 µM: 2%
Opiate µ (OP3, MOP)
  inhibition at 10 µM: -10%
Opiate κ (OP2, KOP)
  inhibition at 10 µM: 5%
Phosphodiesterase PDE3A
  inhibition at 10 µM: -3%
Phosphodiesterase PDE4D2
  inhibition at 10 µM: -1%
[4]
  inhibition at 10 µM: 5%
[5]
  inhibition at 10 µM: 1%
[6]
  inhibition at 10 µM: 0%
[7]
  inhibition at 10 µM: -8%
[8]
  inhibition at 10 µM: 1%
[9]
  inhibition at 10 µM: -4%
[10]
  inhibition at 10 µM: -7%
[11]
  inhibition at 10 µM: -12%
[12]
  inhibition at 10 µM: 5%
Vasopressin V1A
  inhibition at 10 µM: -15%

## TH9028
MTHFD2L
  IC50: 27 nM
MTHFD1-(DC)
  IC50: 0.5 nM
MTHFD2
  IC50: 11 nM
